The subject of series [1] is Hep-G2 cells. The format is cell-based. The conditions noted are these: for Fluorescence Intensity, DAPI Image: 380 nm exc; for Fluorescence Intensity, DAPI Image / Fluorescence Intensity, Alexa Image: complex 1×10^−6 M; for Fluorescence Intensity, Alexa Image: 640 nm exc. Here is the method: (§1) The culture medium was prepared by dissolving 13.4 g of DMEM-high glucose (Sigma, USA) in 1 L of distilled water. Sodium bicarbonate (3.7 g L^−1) was added to the medium and the pH of the medium was adjusted to 7.4. This medium was then sterilized by passing through a sterile filter assembly fitted with a 0.22 μm filter (Millipore, USA) using a vacuum pump. Later, the medium was stored in pre-sterilized Borosil polypropylene bottles, at 4° C., until further use. To the prepared culture medium an antibiotic mixture (20 μL mL^−1 of 100× concentrate, Sigma, USA) was added. Fetal bovine serum (FBS) (Sigma, USA) was also added to the medium to give a final concentration of 10% (to 900 mL medium, 100 mL of FBS was added).
Hep G2 cells (Human Hepatocellular carcinoma cell lines), which was obtained, from National Centre for Cell Science, Pune, India, were stored in cryovials at −196° C. in liquid nitrogen, in a medium containing 70% FBS, 10% dimethyl sulfoxide (DMSO) and 20% DMEM. For revival, the vials were thawed by placing them in a water-bath maintained at 37° C. for 2-3 minutes followed by centrifugation at 3000 rpm for 3 minutes. Supernatent was removed and the pellet after suspending in medium were transferred into a radiation sterilized culturing flask, T-25 cm^2 (BD Biosciences) inside the laminar flow. Subsequently, the flask was placed in a CO2 incubator for 2 h. The viable cells stick to the culture flask while the dead cells remain in the medium. Later the medium was replaced with fresh medium containing 10% FBS and incubated till a cell confluency of 70-80%. The medium was then discarded following desired confluency. Following confluency, since the Hep G2 cells are adherent in nature, they were trypsinised by using 1 mL of trypsin (0.25%)—EDTA (0.53 mM) buffer containing 0.9% sodium chloride for […]. The cells were then transferred to a centrifuge tube and centrifuged at 2000 rpm for 3 min, followed by the removal of the supernatant.
For sub culturing, fresh DMEM containing 10% FBS was added under aseptic conditions. Cells were flushed with the help of pipette (1 mL) until the cells are completely dispersed into the medium. The cells were then diluted in a sterile complete medium at 1:3 times and transferred into fresh culture flasks. Then the flasks were placed inside CO2 incubator.
The 1:6 Sq-BSA Complex whose sensitivity of pH lies within the physiological region and due to the ratiometric fluorescence response (FIG. 14) was used in this system for monitoring minor pH fluctuations inside cells ratiometrically. Hep-G2 cells were pre-incubated with phosphate buffer of different pH (6.5, 7.0, 7.5) and kept for 10 minutes. The 1:6 Sq-BSA complex (1×10^−6 M), which was prepared by mixing 5 μl of Sq (4×10^−5 M, prepared in acetonitrile) and 15 μl of BSA protein (1.2×10^−3 M, prepared in phosphate buffer 4.2) was added to each cells and kept for 10 minutes. The cells were then centrifuged and diluted for 2 times and then images has taken using confocal fluorescence microscope using alexa (640 nm exc) and DAPI (380 nm exc) as filters. With respect to the pH of the wells the fluorescence intensity from the DAPI image was enhanced and the alexa image got quenched. Quantitative data for pH measurements in cells were obtained using bio-rad image data, explorer software (table 2). The viability of the cells after incubation of Sq-BSA complex was confirmed by the bright-field transmission measurements (FIG. 15 c, bottom).

The nature of series [2]: Fluorescence detection of thiols (GSH) by Sq, selectivity and sensitivity. The conditions noted are these: pH 8.0. As to the method:
Sq detects GSH quantitatively with high sensitivity (2 nM) (FIG. 3). Formula 1 prepared in 30% ACN/25 mM phosphate buffer is used for monitoring thiol variations inside cells. […] The aggregation was confirmed by temperature-dependent UV/Vis and emission spectroscopic studies in 15% acetonitrile/water mixture (FIG. 5a and FIG. 5b). The self-assembly of Sq was established further by atomic force microscopy (AFM), transition electron microscopy (TEM) and DLS analysis. […] Formula 1 prepared in 25 mM phosphate buffer solution at a pH of 4.2 labels serum albumin proteins noncovalently, which is evident from the UV-vis and emission spectroscopic studies. The broad absorption (550-850 nm) corresponding to the absorption of Sq aggregates narrowed with a turn-on fluorescence at 700 nm exc @ 640 nm) emission upon addition of BSA protein was observed (FIGS. 7a & 7b). The solution of the Sq dye in phosphate buffer has a blue color but nonemissive (FIG. 7c, top). […] The 1:6 Sq-BSA complex whose pH sensitivity lies within the physiological region and due to the ratiometric fluorescence response (FIG. 14) this system was used for monitoring minor pH fluctuations inside cells ratiometrically. […] Quantitative data for pH measurements in cells were obtained using bio-rad image data explorer software (table 2). […]

The nature of series [3]: Stability of the dye over pH. The format is physicochemical. The text has this:
Even though noncovalent interaction of serum albumin proteins and covalent interaction of thiol containing small molecules with squaraine dyes are known in individual cases, achieving both type of interaction by a single probe in a reversible fashion with an external stimulus remains challenging. Therefore, the first and foremost task was identifying an appropriate switchable dye molecule, which is stable at a broad pH window with distinct emission wavelengths during the different modes of interactions and having a tunable pH responsive interaction. […] This absorption band is similar to the absorption of Sq in acetonitrile in which the molecule exists in the monomeric state. […] Sq (6 μM) in a 25 mM phosphate buffer (pH 4.2) has no emission at 700 nm due to the aggregation. Upon addition of BSA protein, a gradual enhancement in the fluorescence intensity at 700 nm was observed (FIG. 7b). This fluorescence enhancement is due to the disassembly of aggregates and the consequent noncovalent interaction between Sq and BSA protein. The solution of the Sq dye in 25 mM phosphate buffer has a blue color and at this stage the dye is non emissive (FIG. 7c, top).

Series [4] in a line: Self-assembly morphology by AFM, TEM and DLS. The format is physicochemical. An excerpt:
The self-assembly of Sq was established by atomic force microscopy (AFM), transition electron microscopy (TEM) and DLS analysis. […] The dynamic light scattering (DLS) measurements of a buffer solution containing.

The target in series [5] is BSA protein (Bos taurus, UniProt P02769). The series is described as follows: Noncovalent (pH 4.2) and covalent (pH 8.2) labeling of serum albumin, fluorescence turn-on. The format is binding, Bovine. The conditions noted are these: 25 mM phosphate buffer, 6 μM. Here is the method: Stock solution of Sq (1.2×10^−3 M) was prepared in acetonitrile and stock solution of BSA protein (2.4×10^−3M) was prepared in 25 mM phosphate buffer at pH 4.2. 15 μL of Sq from the stock solution is added to the 25 mM phosphate buffer at pH 4.2, to make the resulting concentration of the solution into 6×10^−6 M. To this solution different volumes ranging from 7.5-150 μL of BSA protein were added and the absorption and emission spectra were recorded each time after 20 minutes. The broad absorption (550-850 nm) corresponding to the absorption of Sq aggregates narrowed with a turn-on fluorescence at 700 nm (λexc @ 640 nm) emission was observed.
Stock solution of Sq (1.2×10^−3 M) was prepared in acetonitrile and stock solution of BSA protein (1.2×10^−3 M) was prepared in 25 mM phosphate buffer at a pH of 8.2. 15 μL of Sq from the stock solution is added to 25 mM phosphate buffer at pH 8.2, to make the resulting concentration of the solution to 6×10^−6 M. To this solution different volumes ranging from 1.5-36 μL of BSA protein were added and the absorption and emission spectra were recorded at 15 minutes interval. The broad absorption (550-850 nm) corresponding to the absorption of Sq aggregates quenched with concomitant formation of an absorption at 380 nm was observed (FIG. 8a). […]

Series [6] addresses HSA protein (Homo sapiens, UniProt P02768). The description is as above. Type of series: binding. The conditions noted are these: 25 mM phosphate buffer, 6 μM. An excerpt: (§2) This selectivity apparently originates from the Sq disassembly driven by the molecular recognition sites of the serum albumin proteins.
Series [7] concerns other thiol and nonthiol containing proteins (heamoglobin, glutathione reductase, bromelain). Nature of the series: Selectivity against other thiol and nonthiol containing proteins. Type of series: binding.
Source text: as §2

A short description of series [8]: Selectivity against small thiol containing molecules in self-assembled state. The conditions noted are these: 10 equivalent; Sq 6×10^−6 M; 480 nm. An excerpt: The selectivity of our nanoprobe towards serum albumin proteins from small thiol containing molecules like cysteine, homocysteine, glutathione, mercaptoethanol, dithiothreitol, cystamine and thioglycolic acid at a higher pH of 8.2, where the dye is expected to undergo thiol alkylation reaction is investigated. […] Bar diagram represents the selectivity of Sq (6×10^−6 M) for BSA and HSA protein (6×10^−6 M) from other small thiol containing molecules (FIG. 10) which clearly indicate that the probe in its self-assembled state is able to detect serum albumin protein among other thiol containing small molecules.

The subject of series [9] is Hep-G2 cells. The series is described as follows: Detection of minor thiol fluctuations inside HepG2 cells pre-treated with NEM. Type of series: cell-based, Human. The conditions noted are these: NEM 3×10^−3 M to 3×10^−6 M, 15 minutes; dye 10 minutes. Here is the method: as §1
Hep G2 cells (Human Hepatocellular carcinoma cell lines), which was obtained, from National Centre for Cell Science, Pune, India, were stored in cryovials at −196° C. in liquid nitrogen, in a medium containing 70% FBS, 10% dimethyl sulfoxide (DMSO) and 20% DMEM. […]
Hep-G2 cells were pre-incubated with NEM of various concentrations (3×10^−3 M to 3×10^−6 M) and kept for 15 minutes. […] The cells were then centrifuged and diluted for 2 times and then images were-taken using confocal fluorescence microscope using alexa (640 nm exc) and DAPI (380 nm exc) as filters.

Read-outs that look alike come from different tables or passages of the source.

Sequence of BSA protein (P02769 25-607): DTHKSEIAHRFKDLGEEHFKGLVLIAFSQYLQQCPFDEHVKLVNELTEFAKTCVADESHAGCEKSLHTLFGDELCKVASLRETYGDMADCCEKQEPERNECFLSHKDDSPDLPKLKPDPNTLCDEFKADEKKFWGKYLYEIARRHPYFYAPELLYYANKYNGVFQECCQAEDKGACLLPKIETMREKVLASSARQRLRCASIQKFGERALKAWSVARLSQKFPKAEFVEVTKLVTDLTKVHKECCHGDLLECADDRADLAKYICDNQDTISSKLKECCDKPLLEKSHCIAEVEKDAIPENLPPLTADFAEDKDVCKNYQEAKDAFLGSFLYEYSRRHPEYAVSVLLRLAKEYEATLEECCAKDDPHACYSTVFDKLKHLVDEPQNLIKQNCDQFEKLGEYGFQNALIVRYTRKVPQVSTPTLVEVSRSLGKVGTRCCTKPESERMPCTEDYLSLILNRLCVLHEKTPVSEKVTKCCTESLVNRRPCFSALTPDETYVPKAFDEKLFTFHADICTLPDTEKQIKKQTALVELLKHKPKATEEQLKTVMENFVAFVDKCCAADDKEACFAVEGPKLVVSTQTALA
Sequence of HSA protein (P02768 25-609): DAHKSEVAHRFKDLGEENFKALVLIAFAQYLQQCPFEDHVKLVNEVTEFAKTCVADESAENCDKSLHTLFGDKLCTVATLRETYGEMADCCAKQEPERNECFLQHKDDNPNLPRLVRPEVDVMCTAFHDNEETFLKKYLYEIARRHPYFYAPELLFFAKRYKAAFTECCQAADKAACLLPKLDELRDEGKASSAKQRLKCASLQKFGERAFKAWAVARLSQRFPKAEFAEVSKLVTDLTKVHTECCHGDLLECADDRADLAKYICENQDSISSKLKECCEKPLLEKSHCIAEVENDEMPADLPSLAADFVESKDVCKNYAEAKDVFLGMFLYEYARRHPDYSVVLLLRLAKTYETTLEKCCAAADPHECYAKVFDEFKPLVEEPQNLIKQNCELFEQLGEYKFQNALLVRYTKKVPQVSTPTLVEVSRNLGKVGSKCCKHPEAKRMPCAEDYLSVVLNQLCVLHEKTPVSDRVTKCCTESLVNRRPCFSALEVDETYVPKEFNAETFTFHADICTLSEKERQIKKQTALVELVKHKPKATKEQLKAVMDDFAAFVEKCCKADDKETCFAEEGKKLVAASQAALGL

With “1:6 Sq-BSA complex: complex of squaraine dye Sq with BSA protein in ratio 1:6”, in series [1], the “viability of the cells after incubation” value is recorded as “confirmed”. Besides, the “Fluorescence Intensity, DAPI Image” value in [1] (pH 6.5) came to 8.5; in [1] (pH 7.0) it was 24.61; in series [1] (pH 7.5), 30.18. In addition, the “Fluorescence Intensity, Alexa Image” value in [1] (pH 6.5) turned out to be 39.84; in [1] (pH 7.0), 21.47; in series [1] (pH 7.5), 18.08.

For `CCCCN(CCCC)c1ccc(C2=C(O)C(c3ccc(/C=C/c4cc(OC)ccc4OC)n3CCOCCOCCOC)C2=O)cc1` (centres unmarked) [Sq, (E)-2-(4-(dibutylamino)phenyl)-4-(5-(2,5-dimethoxystyryl)-1-(2-(2-(2-methoxyethoxy)ethoxy)ethyl)-1H-pyrrol-2-yl)-3-hydroxycyclobut-2-enone], the “selectivity toward thiols among amino acids (fluorescence at 510 nm)” value in series [2] (20 equivalence of 9 amino acids, 1 equivalence Cys, Hcy, GSH) was “highly selective to GSH”. For the same molecule, the “detection limit for GSH (fluorescent intensity at 510 nm)” value in series [2] (30% ACN/25 mM phosphate buffer, λexc 380 nm) was determined as 2 nM. Besides, in series [3], the “pH range of stability” value was 2-12. In series [4] (6×10^−6 M in 25 mM phosphate buffer, pH 4.2), the “diameter of spherical aggregates (AFM and TEM)” value is recorded as 100-300 nm. In addition, the “mean diameter of aggregates (DLS)” value in series [4] (buffer solution, Sq 6 μM) is listed as 200 nm. The “fluorescence response with BSA at pH 8.2 (covalent labeling)” value in series [5] (λexc 380 nm) is “green emission at 480 nm”. Moreover, in series [5] (λexc 640 nm), the “fluorescence response with BSA at pH 4.2 (noncovalent labeling)” value is reported as “fluorescence enhancement at 700 nm”. Moreover, in series [6] (λexc 380 nm), the “fluorescence response with HSA at pH 8.2 (covalent labeling)” value was “green emission at 480 nm”. In addition, the “fluorescence response with HSA at pH 4.2 (noncovalent labeling)” value in [6] (λexc 640 nm) was “fluorescence enhancement at 700 nm”. Moreover, the “fluorescence response with heamoglobin, glutathione reductase, bromelain at pH 8.2” value in series [7] (0.10 equivalence, 480 nm) was “unable to produce fluorescence enhancement at 480 nm”. In addition, the “fluorescence response with other thiols and nonthiol containing proteins at pH 4.2” value in series [7] (10 equivalence, 700 nm) is “no fluorescence enhancement in the NIR region”. Moreover, the “fluorescence response with thiol containing small molecules at pH 8.2” value in [8] is “unable to generate much fluorescent enhancement in the 480 nm region”. In addition, the “fluorescence intensity in cells versus NEM concentration” value in [9] is listed as “gradual quenching”.
